The numbers were not newly measured in EP4555997A1, “WATER-SOLUBLE COMPOSITION COMPRISING UROLITHIN” (Science4Beauty Sp. z o.o., priority 2023, dated 2025), which cites them from elsewhere.

Molecules are shown by their SMILES.

For this data set the following is noted: HPLC-determined, water at 30° C.

Turning to `O=c1oc2cc(O)ccc2c2ccc(O)cc12` [UroA, 3,8-dihydroxy-6H-benzo[c]chromen-6-one], the solubility in water entry is recorded as “less than 0.01 g/L”.
